Measurements from PMC8379256, “A xanthene derivative, DS20060511, attenuates glucose intolerance by inducing skeletal muscle-specific GLUT4 translocation in mice” (Communications Biology, 2021).
Values joined by “and” are separate entries in the source; they are usually repeats but may differ in a detail not shown here. Equal values may be shown once.

Legend:
C57BL/6 mice [1] = assay: Indirect calorimetry and exercise endurance under stepwise treadmill running; type: in vivo, mouse; settings: 30 mg/kg; for Respiratory quotient / CO2 Production (VCO2) / O2 Consumption (VO2): DS20060511 30 mg/kg, individual mice 1-7, Fig. 5a
Procedure: The mice were acclimatized to the treadmill by allowing them to run at 10 m min^−1 for 10 min on the day before the test. On the day of the test, the mice received oral administration of 30 mg kg^−1 of DS20060511 or vehicle 15 min before they were made to run. The treadmill was started at a velocity of 10 m min^−1, with the speed increased stepwise by 2 m min^−1 every 3 min, to assess the exercise endurance capacity as described previously. Measurements of the oxygen consumption (VO2) and exhaled carbon dioxide (VCO2) under treadmill running were conducted with the ARCO-2000 magnetic-type mass spectrometric calorimeter (ARCO System, Kashiwa, Japan) connected to the treadmill chamber (MB-2000, ARCO System). The RER was calculated as the VCO2/VO2 ratio and the substrate utilization rates were calculated using Frayn’s formula[51]: rate of glucose oxidation = 4.585VCO2 − 3.226VO2; rate of fat oxidation = 1.695VO2 − 1.701VCO2. The exercise endurance capacity under treadmill running was determined by measuring the time from the start to the time until the mice ceased to run because of exhaustion, which was defined as remaining on the shocker plate for more than 10 sec. Immediately after the exercise, the blood glucose and lactate levels were measured using Glutest Every and Lactate Pro2 (ARKRAY, Kyoto, Japan), respectively, in blood samples collected from the tail vein.

C57BL/6 mice [2] = assay: Indirect calorimetry under the oral glucose tolerance test; type: in vivo, mouse; settings: oral GTT; 30 mg/kg po; 1 h after glucose load
Description: In the revised manuscript, we have added references
154–156. We think that the reference, PMID: 23349504, is not suitable for this context, because this […]
What is the faith of the glucose in response to DS20060511? Is it oxidized or stored as glycogen? Does it produce excessive oxidative stress? Please include such important measures.
Response: Thank you for your question. We agree that such information is important. In the revised manuscript, we have added data on the glycogen contents of the skeletal muscle, heart, and liver after 28 days of DS20060511 treatment in db/db mice, in Supplementary Fig. 5c and lines 241–243, as […]
liver, or in the glycogen contents of the muscle, heart, and liver (Supplementary Fig. 5b, c).” The […]
oxidized, and not stored as glycogen. We, however, regret not assessing the level of oxidative stress in the skeletal muscles of the db/db mice. To determine whether DS20060511 treatment might produce excessive oxidative stress, the data of indirect calorimetry under GTT in B6 mice may be […]
produce excessive oxidative stress, at least at the whole-body level in the normal state.
Indirect calorimetry under the oral glucose tolerance test. C57BL/6 mice (n = 6) that had been denied access to food overnight received oral administration of 30 […]
glucose load (1.5 g kg-1). Indirect calorimetry was performed for 1 h after the glucose load. […]

COc1ccc2c(C)c(C(=O)O)ccc2c1C1C2=C(CC(C)(C)CC2=O)OC2=C1C(=O)CC(C)(C)C2 [DS20060511]
Respiratory quotient (C57BL/6 mice [1]; 2 min): 0.76 (2×) and 0.78 and 0.75 and 0.82 (2×) and 0.79
CO2 Production (VCO2) (C57BL/6 mice [1]; 3 min): 92.0 mL/min/kg and 71.1 mL/min/kg and 77.7 mL/min/kg and 83.7 mL/min/kg and 70.1 mL/min/kg and 74.8 mL/min/kg and 73.0 mL/min/kg
O2 Consumption (VO2) (C57BL/6 mice [1]; 3 min): 103.2 mL/min/kg and 101.7 mL/min/kg and 88.1 mL/min/kg and 95.2 mL/min/kg and 94.7 mL/min/kg and 120.2 mL/min/kg and 89.5 mL/min/kg
Respiratory quotient (C57BL/6 mice [1]; 3 min): 0.77 (2×) and 0.79 (2×) and 0.75 and 0.82 and 0.80
CO2 Production (VCO2) (C57BL/6 mice [1]; 4 min): 90.3 mL/min/kg and 73.1 mL/min/kg and 78.3 mL/min/kg and 89.7 mL/min/kg and 70.1 mL/min/kg and 72.9 mL/min/kg and 72.1 mL/min/kg
O2 Consumption (VO2) (C57BL/6 mice [1]; 4 min): 103.7 ml/min/kg and 110.0 ml/min/kg and 106.3 ml/min/kg and 93.1 ml/min/kg (2×) and 117.2 ml/min/kg and 90.4 ml/min/kg
Respiratory quotient (C57BL/6 mice [1]; 4 min): 0.77 (2×) and 0.81 (2×) and 0.75 and 0.66 and 0.78
CO2 Production (VCO2) (C57BL/6 mice [1]; 5 min): 91.5 mL/min/kg and 72.5 mL/min/kg and 78.6 mL/min/kg and 85.8 mL/min/kg and 66.5 mL/min/kg and 73.8 mL/min/kg and 71.7 mL/min/kg
O2 Consumption (VO2) (C57BL/6 mice [1]; 5 min): 103.7 mL/min/kg and 103.8 mL/min/kg and 83.5 mL/min/kg and 95.6 mL/min/kg and 90.5 mL/min/kg and 116.5 mL/min/kg and 90.3 mL/min/kg
Respiratory quotient (C57BL/6 mice [1]; 5 min): 0.78 and 0.80 (2×) and 0.76 and 0.83 and 0.77 and 0.79
CO2 Production (VCO2) (C57BL/6 mice [1]; 6 min): 87.9 mL/min/kg and 70.6 mL/min/kg and 76.9 mL/min/kg and 85.9 mL/min/kg and 73.0 mL/min/kg and 71.8 mL/min/kg and 71.2 mL/min/kg
O2 Consumption (VO2) (C57BL/6 mice [1]; 6 min): 100.7 mL/min/kg and 102.8 mL/min/kg and 90.9 mL/min/kg and 93.7 mL/min/kg and 92.0 mL/min/kg and 112.2 mL/min/kg and 87.4 mL/min/kg
Respiratory quotient (C57BL/6 mice [1]; 6 min): 0.78 and 0.81 and 0.76 and 0.84 and 0.80 and 0.77 (2×)
CO2 Production (VCO2) (C57BL/6 mice [1]; 7 min): 93.5 mL/min/kg and 69.9 mL/min/kg and 76.8 mL/min/kg and 86.5 mL/min/kg and 72.9 mL/min/kg and 71.9 mL/min/kg and 70.2 mL/min/kg
O2 Consumption (VO2) (C57BL/6 mice [1]; 7 min): 101.1 mL/min/kg and 105.0 mL/min/kg and 90.7 mL/min/kg and 93.7 mL/min/kg and 90.0 mL/min/kg and 120.2 mL/min/kg and 86.5 mL/min/kg
Respiratory quotient (C57BL/6 mice [1]; 7 min): 0.78 (2×) and 0.81 and 0.76 and 0.82 and 0.80 and 0.77
CO2 Production (VCO2) (C57BL/6 mice [1]; 8 min): 88.9 mL/min/kg and 75.0 mL/min/kg and 78.4 mL/min/kg and 85.8 mL/min/kg and 72.7 mL/min/kg and 72.1 mL/min/kg and 69.7 mL/min/kg
O2 Consumption (VO2) (C57BL/6 mice [1]; 8 min): 103.5 mL/min/kg and 107.7 mL/min/kg and 91.4 mL/min/kg and 93.1 mL/min/kg and 101.3 mL/min/kg and 113.1 mL/min/kg and 92.7 mL/min/kg
Respiratory quotient (C57BL/6 mice [1]; 8 min): 0.79 and 0.81 and 0.76 and 0.80 (2×) and 0.77 and 0.69
CO2 Production (VCO2) (C57BL/6 mice [1]; 9 min): 95.5 mL/min/kg and 73.8 mL/min/kg and 77.9 mL/min/kg and 84.5 mL/min/kg and 74.4 mL/min/kg and 71.2 mL/min/kg and 78.8 mL/min/kg
O2 Consumption (VO2) (C57BL/6 mice [1]; 9 min): 100.3 mL/min/kg and 103.6 mL/min/kg and 93.8 mL/min/kg and 94.2 mL/min/kg and 95.0 mL/min/kg and 118.5 mL/min/kg and 89.8 mL/min/kg
Respiratory quotient (C57BL/6 mice [1]; 9 min): 0.81 and 0.82 (2×) and 0.78 and 0.79 and 0.76 and 0.83
CO2 Production (VCO2) (C57BL/6 mice [1]; 10 min): 92.6 ml/min/kg and 70.7 ml/min/kg and 80.1 ml/min/kg and 84.2 ml/min/kg (2×) and 72.0 ml/min/kg and 74.9 ml/min/kg
O2 Consumption (VO2) (C57BL/6 mice [1]; 10 min): 104.6 mL/min/kg and 102.1 mL/min/kg and 90.2 mL/min/kg and 95.3 mL/min/kg and 98.2 mL/min/kg and 113.5 mL/min/kg and 87.0 mL/min/kg
Respiratory quotient (C57BL/6 mice [1]; 10 min): 0.82 (2×) and 0.81 and 0.77 and 0.80 and 0.79 and 0.86
CO2 Production (VCO2) (C57BL/6 mice [1]; 11 min): 96.0 ml/min/kg and 73.8 ml/min/kg and 80.9 ml/min/kg and 84.3 ml/min/kg and 71.1 ml/min/kg (2×) and 86.5 ml/min/kg
O2 Consumption (VO2) (C57BL/6 mice [1]; 11 min): 106.8 mL/min/kg and 102.9 mL/min/kg and 84.9 mL/min/kg and 92.0 mL/min/kg and 101.1 mL/min/kg and 115.1 mL/min/kg and 89.8 mL/min/kg
Respiratory quotient (C57BL/6 mice [1]; 11 min): 0.83 and 0.82 (2×) and 0.76 and 0.84 and 0.77 and 0.85
CO2 Production (VCO2) (C57BL/6 mice [1]; 12 min): 97.3 mL/min/kg and 74.3 mL/min/kg and 80.0 mL/min/kg and 93.2 mL/min/kg and 68.6 mL/min/kg and 70.0 mL/min/kg and 89.3 mL/min/kg
O2 Consumption (VO2) (C57BL/6 mice [1]; 12 min): 103.8 mL/min/kg and 112.5 mL/min/kg and 85.8 mL/min/kg and 91.1 mL/min/kg and 105.1 mL/min/kg and 120.4 mL/min/kg and 90.9 mL/min/kg
Respiratory quotient (C57BL/6 mice [1]; 12 min): 0.81 and 0.82 and 0.77 (2×) and 0.83 and 0.80 and 0.85
CO2 Production (VCO2) (C57BL/6 mice [1]; 13 min): 101.9 mL/min/kg and 82.3 mL/min/kg and 78.0 mL/min/kg and 86.9 mL/min/kg and 68.9 mL/min/kg and 69.6 mL/min/kg and 93.3 mL/min/kg
O2 Consumption (VO2) (C57BL/6 mice [1]; 13 min): 102.8 mL/min/kg and 102.5 mL/min/kg and 86.7 mL/min/kg and 90.5 mL/min/kg and 109.1 mL/min/kg and 127.7 mL/min/kg and 94.9 mL/min/kg
Respiratory quotient (C57BL/6 mice [1]; 13 min): 0.80 and 0.87 and 0.76 and 0.85 and 0.79 and 0.77 and 0.86
CO2 Production (VCO2) (C57BL/6 mice [1]; 14 min): 100.6 mL/min/kg and 80.5 mL/min/kg and 79.5 mL/min/kg and 84.1 mL/min/kg and 69.5 mL/min/kg and 69.8 mL/min/kg and 95.1 mL/min/kg
O2 Consumption (VO2) (C57BL/6 mice [1]; 14 min): 102.1 mL/min/kg and 101.4 mL/min/kg and 88.4 mL/min/kg and 91.3 mL/min/kg and 109.8 mL/min/kg and 125.1 mL/min/kg and 95.0 mL/min/kg
Respiratory quotient (C57BL/6 mice [1]; 14 min): 0.80 and 0.85 and 0.78 and 0.83 and 0.79 and 0.76 and 0.87
CO2 Production (VCO2) (C57BL/6 mice [1]; 15 min): 92.4 mL/min/kg and 82.1 mL/min/kg and 81.9 mL/min/kg and 83.7 mL/min/kg and 69.2 mL/min/kg and 69.5 mL/min/kg and 105.4 mL/min/kg
O2 Consumption (VO2) (C57BL/6 mice [1]; 15 min): 105.0 mL/min/kg and 100.1 mL/min/kg and 87.5 mL/min/kg and 93.8 mL/min/kg and 120.2 mL/min/kg and 115.1 mL/min/kg and 96.2 mL/min/kg
Respiratory quotient (C57BL/6 mice [1]; 15 min): 0.80 and 0.85 and 0.78 and 0.84 and 0.79 and 0.74 and 0.88
CO2 Production (VCO2) (C57BL/6 mice [1]; 16 min): 98.8 mL/min/kg and 82.5 mL/min/kg
O2 Consumption (VO2) (C57BL/6 mice [1]; 16 min): 103.6 mL/min/kg and 108.6 mL/min/kg
Respiratory quotient (C57BL/6 mice [1]; 16 min): 0.79 and 0.85
Blood glucose (C57BL/6 mice [1]; exercise tolerance test, individual mice): 124 mg/dL and 146 mg/dL and 95 mg/dL and 96 mg/dL and 149 mg/dL and 133 mg/dL and 119 mg/dL
VO2 (C57BL/6 mice [2]): no change in the VO2
